Reference: patent publication US11939312B2, “Enantiomeric entactogen compositions and their use” (Arcadia Medicine, Inc., priority 2021, dated 2024)
Like-named read-outs stand apart in the source and are kept apart here.

Experiments:
[1] = p.o. in rat (single housing for SR(±)MDMA); cited from earlier work
[2] = rodent models, doses far above allometrically-scaled clinical doses (Curry 2018); cited from earlier work
[3] = repeated administration, 50 mg/kg bw, mice (Curry 2018); cited from earlier work
[4] = cited from earlier work
[5] = Subjective report of R-MDMA HCL (Example 11); conditions: oral 250 (±) 10 mg
Procedure: Purpose: To determine the physiological and subjective effects of the hydrochloride salt of R-MDMA (oral administration, 250 (±) 10 mg), supplemented with acetyl-L-carnitine (ALCAR), alpha lipoic acid (ALA), ascorbate to reduce or prevent neurotoxicity.

[6] = Maximum recommended starting dose (MRSD); conditions: expected value
[7] = Calculated human equivalent dose (HED) of the NOAEL; conditions: for Human Equivalent Dose (HED): NOAEL (human), total dose / Human Equivalent Dose (HED): neurotoxicology NOAEL (human), total dose: assuming a 60 kg human; for NOAEL: human
[8] = dog, female and male, p.o.; cited from earlier work
[9] = cited from earlier work; remark: listed apart in the source
[10] = doses of 100-125 mg; cited from earlier work
[11] = rat, p.o., cited from earlier work
[12] = brain imaging studies, 100 mg, healthy volunteers

CN[C@H](C)Cc1ccc2c(c1)OCO2 [R-MDMA, (R)-1-(1,3-Benzodioxol-5-yl)-N-methyl-propan-2-amine]
No adverse effect level (NOAEL) [1]: NOAEL: >200 mg/kg | temperature fluctuations [2]: no significant temperature fluctuations | evidence of neurotoxicity [3]: did not show evidence of neurotoxicity | AUC in comparison to S-MDMA ([4]; Fallon 1999, Fitzgerald 1990): increased AUC | half-life in comparison to S-MDMA ([4]; Fallon 1999, Fitzgerald 1990): longer half-life | hyperthermia or hypothermia [5]: No noticeable hyperthermia or hypothermia | jaw clenching [5]: No incidence of jaw clenching | onset of noticeable effects ([5]; Subject A): around 40 minutes | time of peak of the experience ([5]; Subject A): around two hours after ingestion | blood pressure ([5]; monitor of low precision, result inconclusive): increased for a short period | heart rate ([5]; short period, from 85 resting): 115-125 | Expected MSRD [6]: >300 mg: | Human Equivalent Dose (HED): NOAEL (human), total dose [7]: >4100 mg | Human Equivalent Dose (HED): neurotoxicology NOAEL (human), total dose [7]: 450 mg* | NOAEL [7]: 7.4 mg/kg

CN[C@@H](C)Cc1ccc2c(c1)OCO2 [S(+)MDMA, (S)-1-(1,3-Benzodioxol-5-yl)-N-methylpropan-2-amine]
Expected MSRD [6]: 150 mg | Human Equivalent Dose (HED): NOAEL (human), total dose [7]: <2080 mg | Human Equivalent Dose (HED): neurotoxicology NOAEL (human), total dose [7]: 342.9 mg* | NOAEL [7]: 6 mg/kg

CNC(C)Cc1ccc2c(c1)OCO2 (racemic) [racemic MDMA, 3,4-methylenedioxymethamphetamine]
Neurotoxicology NOAEL [8]: 4 mg/kg/week p.o | onset of subjective effects ([9]; Harris 2002): approximately 45 mins | time of peak subjective effects ([9]; Harris 2002): 1.5 to 2 h | time to decrease to baseline values ([9]; Harris 2002): 5 to 6 h | duration of subjective effects [9, 12]: approximately 4.5 hours | time of peak subjective effects [9, 12]: 1.67 h | duration of effects ([9]; one dose): 4 to 5 h | time of peak drug effects ([9]; patients with PTSD (Mithoefer 2013)): 2 to 5 h | onset of action ([9]; patients with PTSD, after the initial dose (Mithoefer 2013)): 45 to 75 min | duration of effects ([9]; with the booster dose): 5 to 6 h | No adverse effect level (NOAEL) [1]: NOAEL: 100 mg/kg | time to peak plasma concentration ([4]; doses 100-125 mg, humans): 2 to 3 h | elimination half-life ([4]; similar for doses 50-125 mg): 7 to 9 h | increase in blood pressure (diastolic) [10]: 14.4-25 mmg | increase in heart rate [10]: 26-30 bpm | Neurotoxicology NOAEL ([11]; female): 25 mg/kg/week p.o1 | Neurotoxicology NOAEL ([11]; male): 20 mg/kg/week p.o1. | Human Equivalent Dose (HED): NOAEL (human), total dose [7]: 2080 mg | Human Equivalent Dose (HED): neurotoxicology NOAEL (human), total dose [7]: 342.9 mg* | Human Equivalent Dose (HED): NOAEL (human) ([7]; calculated from NOAEL): 34 mg/kg → | Human Equivalent Dose (HED): neurotoxicology NOAEL (human) ([7]; calculated from neurotoxicology NOAEL): NOAEL (human): 6 mg/kg
